# Measurements reported in PMC314469, “Protein Interaction Networks by Proteome Peptide Scanning” (PLoS Biology, 2004).
# Test system: Myo5 SH3 domain
# Test: SPOT analysis of cellulose-bound peptides (WISE), Myo5 SH3 domain (Dataset S4)
# Type: binding, Saccharomyces cerevisiae
# Conditions: for The normalized value in BLU units: Myo5 SH3 domain
# [1] = SPOT analysis of cellulose-bound peptides probed with Myo5 SH3 domain, normalized value
# [2] = SPOT analysis of cellulose-bound 14-mer yeast proteome peptides, normalized value, mean where the peptide was synthesized more than once
# [3] = SPOT analysis of membrane-bound peptides, normalized value (see methods)
# [4] = SPOT analysis of membrane-synthesized peptides probed with Myo5 SH3 domain, normalized value
sequence,measurement,setting,value
AADSHAIPVDPPSY,"The normalized value in BLU units (SPOT analysis, Myo5 SH3)",[1],37.9 BLU
AADWYEVPKVPLSA,The normalized value in BLU units,[2],275.4 BLU
AALVKFVPSKPMCV,The normalized value in BLU units,[3],280.9 BLU
AAMMLGNPMAPAVQ,The normalized value in BLU units,[2],256.9 BLU
AAMNLETPSNPDSA,The normalized value in BLU units,[2],84.9 BLU
AANAHISPPVPGPA,"The normalized value in BLU units (SPOT analysis, Myo5 SH3)",[1],28.6 BLU
AAPKHAPPPVPNET,"The normalized value in BLU units (SPOT analysis, Myo5 SH3)",[1],110580.8 BLU
AARILANPDHPFSR,The normalized value in BLU units,[2],165.5 BLU
AAVRLDQPILPQND,"The normalized value in BLU units (SPOT analysis, Myo5 SH3)",[1],105.1 BLU
AAYDHAEPVQPEDA,"The normalized value in BLU units (SPOT analysis, Myo5 SH3)",[1],146.1 BLU
ADDLKYIPPIPQDF,The normalized value in BLU units,[3],86.7 BLU
AEAYLVTPEEPAKN,The normalized value in BLU units,[2],39.6 BLU
AEFDLTDPEVPSFY,The normalized value in BLU units,[2],165.8 BLU
AEIVKLTPKNPFYK,"The normalized value in BLU units (SPOT analysis, Myo5 SH3)",[4],102.1 BLU
AELFLGIPIFPGAS,"The normalized value in BLU units (SPOT analysis, Myo5 SH3)",[1],36.7 BLU
AELFLRRPIFPGRD,"The normalized value in BLU units (SPOT analysis, Myo5 SH3)",[1],215.9 BLU
AELLLGQPMFPGES,"The normalized value in BLU units (SPOT analysis, Myo5 SH3)",[1],172.2 BLU
AELMLRIPYLPGQN,"The normalized value in BLU units (SPOT analysis, Myo5 SH3)",[1],236.4 BLU
AERAKKAPSLPEGQ,"The normalized value in BLU units (SPOT analysis, Myo5 SH3)",[4],389.2 BLU
AEVYYGPPTDPRKQ,"The normalized value in BLU units (SPOT analysis, Myo5 SH3)",[1],83.5 BLU
AFHELGIPVIPNPS,"The normalized value in BLU units (SPOT analysis, Myo5 SH3)",[1],193.0 BLU
AFHFWRPPIAPAEM,"The normalized value in BLU units (SPOT analysis, Myo5 SH3)",[1],1961.3 BLU
AFVPKRKPSLPQLA,"The normalized value in BLU units (SPOT analysis, Myo5 SH3)",[4],1744.9 BLU
AFWWKKNPKTPSDY,The normalized value in BLU units,[3],65.0 BLU
AFYYKYYPVEPNCN,"The normalized value in BLU units (SPOT analysis, Myo5 SH3)",[4],187.7 BLU
AGHIKTHPNSPTPG,The normalized value in BLU units,[2],60.3 BLU
AGLYKLSPLYPFDV,"The normalized value in BLU units (SPOT analysis, Myo5 SH3)",[4],133.2 BLU
AGMAKTKPDVPLSY,The normalized value in BLU units,[3],157.7 BLU
AGPRKYIPRAPAQG,The normalized value in BLU units,[3],194.7 BLU
AGQERFAPLAPMYY,The normalized value in BLU units,[3],100.8 BLU
AISKKLGPDTPIKV,"The normalized value in BLU units (SPOT analysis, Myo5 SH3)",[4],176.5 BLU
AKDYRFNPAIPLRI,"The normalized value in BLU units (SPOT analysis, Myo5 SH3)",[4],304.4 BLU
AKIDKVSPEDPWVL,"The normalized value in BLU units (SPOT analysis, Myo5 SH3)",[4],248.0 BLU
AKINKVSPEDPWVL,"The normalized value in BLU units (SPOT analysis, Myo5 SH3)",[4],121.0 BLU
AKLHRTKPVKPLSK,The normalized value in BLU units,[3],501.8 BLU
AKLRKFHPPEPYKG,The normalized value in BLU units,[3],119.3 BLU
AKSNKVSPEDPAVQ,The normalized value in BLU units,[2],371.0 BLU
AKTNKNVPVLPTPG,"The normalized value in BLU units (SPOT analysis, Myo5 SH3)",[4],130.3 BLU
AKVNKCPPDHPYIQ,"The normalized value in BLU units (SPOT analysis, Myo5 SH3)",[4],164.3 BLU
ALDNFTLPGTPGFP,The normalized value in BLU units,[2],180.7 BLU
ALDYLIPPPMPKNQ,"The normalized value in BLU units (SPOT analysis, Myo5 SH3)",[1],130.6 BLU
ALEERFDPKSPTKR,"The normalized value in BLU units (SPOT analysis, Myo5 SH3)",[4],108.5 BLU
ALGFYRAPGSPAPA,"The normalized value in BLU units (SPOT analysis, Myo5 SH3)",[1],100.8 BLU
ALGIFFAPESPWWL,The normalized value in BLU units,[2],229.3 BLU
ALKEMTHPIKPSAQ,"The normalized value in BLU units (SPOT analysis, Myo5 SH3)",[1],261.0 BLU
ALKSLSNPSSPWQQ,"The normalized value in BLU units (SPOT analysis, Myo5 SH3)",[1],30.3 BLU
ALLIKTVPGFPLLE,"The normalized value in BLU units (SPOT analysis, Myo5 SH3)",[4],144.3 BLU
ALLRRTIPKRPFYH,"The normalized value in BLU units (SPOT analysis, Myo5 SH3)",[4],914.3 BLU
ALNNWILPSTPHIQ,"The normalized value in BLU units (SPOT analysis, Myo5 SH3)",[1],169.3 BLU
ALRKFGYPFSPNDP,The normalized value in BLU units,[2],166.2 BLU
ALSTKGYPHEPPLL,"The normalized value in BLU units (SPOT analysis, Myo5 SH3)",[4],138.6 BLU
ALWAKFFPEKPLNI,The normalized value in BLU units,[2],154.0 BLU
ALYHLSNPNVPKLW,The normalized value in BLU units,[2],195.7 BLU
AMESRVAPEIPGLI,The normalized value in BLU units,[3],426.0 BLU
APAPPPPPQMPAT,"The normalized value in BLU units (SPOT analysis, Myo5 SH3)",[1],7749 BLU
APKKWKAPKGPKPT,The normalized value in BLU units,[2],1010.5 BLU
APKYYVPPGIPTND,"The normalized value in BLU units (SPOT analysis, Myo5 SH3)",[1],10351.6 BLU
APLLYSCPSEPMAY,The normalized value in BLU units,[2],83.1 BLU
APPALSAPSIPPVP,The normalized value in BLU units,[2],10786.3 BLU
APPALSAPSVPPVP,The normalized value in BLU units,[2],6575.3 BLU
APPPKEEPAAPTST,The normalized value in BLU units,[3],116.7 BLU
APQPHLLPWLPPTD,The normalized value in BLU units,[2],117.4 BLU
APVVKSEPSLPRMR,"The normalized value in BLU units (SPOT analysis, Myo5 SH3)",[4],241.2 BLU
AQKLKLLPEEPFQR,The normalized value in BLU units,[3],400.9 BLU
ASFRKTKPPPPLDF,"The normalized value in BLU units (SPOT analysis, Myo5 SH3)",[4],169.0 BLU
ASKHKMFPFNPAKI,The normalized value in BLU units,[3],953.1 BLU
ATEAKCLPKIPSIP,The normalized value in BLU units,[3],136.7 BLU
ATGKRKLPGWPSAD,"The normalized value in BLU units (SPOT analysis, Myo5 SH3)",[4],136.1 BLU
ATKRKTIPVYPPVQ,The normalized value in BLU units,[3],273.7 BLU
ATVVKNCPGDPELF,The normalized value in BLU units,[3],76.2 BLU
AVGGKWEPGNPIAI,"The normalized value in BLU units (SPOT analysis, Myo5 SH3)",[4],78.4 BLU
